From the NIST ThermoML archive (doi:10.1016/j.jct.2016.09.010)

Test: xn = mol fraction of the nth substance listed
Conditions: 100 kPa, Liquid; for speed of sound: Frequency=2 MHz, Linear variable-path acoustic interferometer; for mass density: Vibrating tube method

CCOC(=O)C(C)O (stereo not drawn) [DL-ethyl lactate] + Nc1ccccc1
Conditions | mass density, 303.15 K [kg/m3] | mass density, 308.15 K [kg/m3] | mass density, 313.15 K [kg/m3] | mass density, 318.15 K [kg/m3] | speed of sound, 303.15 K [m/s] | speed of sound, 308.15 K [m/s] | speed of sound, 313.15 K [m/s] | speed of sound, 318.15 K [m/s]
x1 = 0.0788 | 1014.12 | 1010.12 | 1005.75 | 1001.3 | 1588.7 | 1570.3 | 1550.3 | 1531.4
x1 = 0.1638 | 1015.39 | 1011.23 | 1006.72 | 1002.15 | 1560.8 | 1542.5 | 1522.7 | 1504
x1 = 0.2514 | 1016.56 | 1012.23 | 1007.57 | 1002.88 | 1531.4 | 1513.2 | 1493.5 | 1474.8
x1 = 0.3445 | 1017.64 | 1013.15 | 1008.36 | 1003.55 | 1499.5 | 1481.4 | 1461.8 | 1443.2
x1 = 0.4393 | 1018.65 | 1014 | 1009.09 | 1004.17 | 1466.5 | 1448.5 | 1429 | 1410.5
x1 = 0.5461 | 1019.69 | 1014.87 | 1009.83 | 1004.79 | 1428.6 | 1410.8 | 1391.4 | 1373.1
x1 = 0.6484 | 1020.59 | 1015.62 | 1010.46 | 1005.31 | 1391.7 | 1374.1 | 1354.9 | 1336.8
x1 = 0.7644 | 1021.47 | 1016.33 | 1011.05 | 1005.79 | 1349.3 | 1331.9 | 1312.9 | 1295
x1 = 0.8737 | 1022.17 | 1016.88 | 1011.49 | 1006.13 | 1308.3 | 1291.1 | 1272.3 | 1254.7
x1 = 1 | 1022.88 | 1017.39 | 1011.83 | 1006.31 | 1261.1 | 1243.8 | 1224.8 | 1206.9

CNc1ccccc1 [N-methylaniline] + CCOC(=O)C(C)O
Conditions | mass density, 303.15 K [kg/m3] | mass density, 308.15 K [kg/m3] | mass density, 313.15 K [kg/m3] | mass density, 318.15 K [kg/m3] | speed of sound, 303.15 K [m/s] | speed of sound, 308.15 K [m/s] | speed of sound, 313.15 K [m/s] | speed of sound, 318.15 K [m/s]
x2 = 0 | 978.2 | 973.53 | 969.92 | 964.9 | 1547 | 1526.9 | 1511 | 1491.4
x2 = 0.1018 | 983.17 | 978.45 | 974.67 | 969.62 | 1520.1 | 1500.8 | 1485 | 1466.1
x2 = 0.1939 | 987.58 | 982.78 | 978.81 | 973.71 | 1495.5 | 1476.5 | 1460.5 | 1441.7
x2 = 0.2814 | 991.69 | 986.81 | 982.67 | 977.52 | 1471.8 | 1452.9 | 1436.6 | 1417.8
x2 = 0.3934 | 996.86 | 991.88 | 987.51 | 982.3 | 1440.7 | 1422.1 | 1405.4 | 1386.7
x2 = 0.491 | 1001.27 | 996.21 | 991.65 | 986.39 | 1413.1 | 1394.7 | 1377.7 | 1359.2
x2 = 0.5902 | 1005.66 | 1000.52 | 995.77 | 990.46 | 1384.5 | 1366.4 | 1349.1 | 1330.8
x2 = 0.6894 | 1009.96 | 1004.74 | 999.8 | 994.45 | 1355.5 | 1337.7 | 1320.1 | 1302
x2 = 0.7851 | 1014.03 | 1008.74 | 1003.62 | 998.22 | 1326.8 | 1309.5 | 1291.7 | 1273.8
x2 = 0.8937 | 1018.56 | 1013.19 | 1007.86 | 1002.41 | 1293.5 | 1276.4 | 1258.3 | 1240.7

CCNc1ccccc1 [N-ethylaminobenzene] + CCOC(=O)C(C)O
Conditions | mass density, 303.15 K [kg/m3] | mass density, 308.15 K [kg/m3] | mass density, 313.15 K [kg/m3] | mass density, 318.15 K [kg/m3] | speed of sound, 303.15 K [m/s] | speed of sound, 308.15 K [m/s] | speed of sound, 313.15 K [m/s] | speed of sound, 318.15 K [m/s]
x2 = 0 | 952.41 | 947.69 | 942.95 | 938.23 | 1497 | 1481 | 1464 | 1448
x2 = 0.1195 | 960.29 | 955.52 | 950.71 | 945.92 | 1471.1 | 1455.4 | 1438.5 | 1422.6
x2 = 0.2183 | 966.93 | 962.08 | 957.2 | 952.34 | 1449.5 | 1433.6 | 1416.6 | 1400.6
x2 = 0.3177 | 973.69 | 968.76 | 963.8 | 958.86 | 1427.2 | 1411.2 | 1394 | 1377.7
x2 = 0.424 | 981.03 | 976.02 | 970.97 | 965.95 | 1402.7 | 1386.6 | 1369.2 | 1352.7
x2 = 0.5225 | 987.95 | 982.86 | 977.73 | 972.63 | 1379.6 | 1363.4 | 1345.8 | 1329.1
x2 = 0.6209 | 994.95 | 989.79 | 984.58 | 979.4 | 1355.9 | 1339.6 | 1321.8 | 1305
x2 = 0.726 | 1002.55 | 997.31 | 992.01 | 986.75 | 1330 | 1313.6 | 1295.6 | 1278.6
x2 = 0.8128 | 1008.91 | 1003.61 | 998.24 | 992.91 | 1308.3 | 1291.7 | 1273.6 | 1256.4
x2 = 0.9074 | 1015.91 | 1010.52 | 1005.09 | 999.68 | 1284.5 | 1267.6 | 1249.2 | 1231.8
